Target: T1, Human Factor D (Homo sapiens, UniProt P00746)
T1 construct: purified from human serum; purchased Complement Technology, Inc; host or cells: human serum (natural protein, not recombinant)
Assay: Human Factor D Assay
Format: biochemical
Conditions: Table 1; Factor D 80 nM, substrate Z-L-Lys-SBzl; read-out: IC50
Description: Human Factor D (purified from human serum, Complement Technology, Inc.) at 80 nM final concentration is incubated with test compound at various concentrations for 5 minutes at room temperature in 50 mM Tris, 1M NaCl, pH 7.5. A synthetic substrate Z-L-Lys-SBzl and DTNB (Ellman's reagent) are added to final concentrations of 100 μM each. Absorbance at 405 nm (A405) is recorded at 30 second intervals for 30 minutes using a microplate spectrophotometer. IC50 values are calculated by nonlinear regression of complement Factor D reaction rates as a function of test compound concentration.

T1 sequence (P00746 26-253): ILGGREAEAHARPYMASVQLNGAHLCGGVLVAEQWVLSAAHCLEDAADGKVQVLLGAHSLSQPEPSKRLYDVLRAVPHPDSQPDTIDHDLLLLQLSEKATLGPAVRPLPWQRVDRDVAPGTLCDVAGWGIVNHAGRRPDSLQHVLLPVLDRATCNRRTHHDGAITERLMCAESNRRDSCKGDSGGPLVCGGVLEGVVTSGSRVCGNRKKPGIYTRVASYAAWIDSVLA

| Structure (SMILES) | IC50 |
| --- | --- |
| NC(=O)c1nn(CC(=O)N2C[C@H](F)C[C@H]2C(=O)Nc2cccc(OC(F)(F)F)c2F)c2ccc(NC(=O)N3CCCC(F)(F)C3)cc12 [Compound 26] | < 1 µM |
| CC(=O)c1cn(CC(=O)N2C[C@H](F)C[C@H]2C(=O)NCc2cccc(Cl)c2F)c2ccc(NC(=O)Nc3ccon3)cc12 [Compound 19, (2S,4R)-1-(2-(3-acetyl-5-(3-isoxazol-3-ylureido)-1H-indol-1-yl)acetyl)-N-(3-chloro-2-fluorobenzyl)-4-fluoropyrrolidine-2-carboxamide] | < 1 µM |
| CC(=O)c1cn(CC(=O)N2C[C@H](F)C[C@H]2C(=O)NCc2cccc(Cl)c2F)c2ccc(NC(=O)NC(C)C)cc12 [Compound 6, (2S,4R)-1-(2-(3-acetyl-5-(3-isopropylureido)-1H-indol-1-yl)acetyl)-N-(3-chloro-2-fluorobenzyl)-4-fluoropyrrolidine-2-carboxamide] | < 1 µM |
| CC(=O)c1cn(CC(=O)N2C[C@H](F)C[C@H]2C(=O)NCc2cccc(Cl)c2F)c2cc(C(=O)N[C@H]3CCN(C(C)=O)C3)ccc12 [Compound 46, 3-acetyl-N-((S)-1-acetylpyrrolidin-3-yl)-1-(2-((2S,4R)-2-(3-chloro-2-fluorobenzylcarbamoyl)-4-fluoropyrrolidin-1-yl)-2-oxoethyl)-1H-indole-6-carboxamide] | < 1 µM |
| CC(=O)c1cn(CC(=O)N2C[C@H](F)C[C@H]2C(=O)NCc2cccc(Cl)c2F)c2ccc(NC(=O)N3CCC(F)(F)C3)cc12 [Compound 13, N-(3-acetyl-1-(2-((2S,4R)-2-(3-chloro-2-fluorobenzylcarbamoyl)-4-fluoropyrrolidin-1-yl)-2-oxoethyl)-1H-indol-5-yl)-3,3-difluoropyrrolidine-1-carboxamide] | < 1 µM |
| CC(=O)c1cn(CC(=O)N2C[C@H](F)C[C@H]2C(=O)NCc2cccc(Cl)c2F)c2ccc(NC(=O)NC3CC3)cc12 [Compound 1, (2S,4R)-1-(2-(3-acetyl-5-(3-cyclopropylureido)-1H-indol-1-yl)acetyl)-N-(3-chloro-2-fluorobenzyl)-4-fluoropyrrolidine-2-carboxamide] | < 1 µM |
| CC(=O)c1cn(CC(=O)N2[C@@H]3C[C@@H]3C[C@H]2C(=O)NCc2cccc(Cl)c2F)c2ccc(NC(=O)N3CCCC3)cc12 [Compound 12, (1R,3S,5R)-2-(2-(3-acetyl-5-(pyrrolidine-1-carboxamido)-1H-indol-1-yl)acetyl)-N-(3-chloro-2-fluorobenzyl)-2-azabicyclo[3.1.0] hexane-3-carboxamide] | < 1 µM |
| CC(=O)c1cn(CC(=O)N2C[C@H](F)C[C@H]2C(=O)NCc2cccc(Cl)c2F)c2ccc(NC(=O)N3CCCC(F)(F)C3)cc12 [Compound 16, N-(3-acetyl-1-(2-((2S,4R)-2-(3-chloro-2-fluorobenzylcarbamoyl)-4-fluoropyrrolidin-1-yl)-2-oxoethyl)-1H-indol-5-yl)-3,3-difluoropiperidine-1-carboxamide] | < 1 µM |
| CC(=O)c1cn(CC(=O)N2[C@@H]3C[C@@H]3C[C@H]2C(=O)NCc2cccc(Cl)c2F)c2ccc(NC(=O)NC3CC3)cc12 [Compound 3, (1R,3S,5R)-2-(2-(3-acetyl-5-(3-cyclopropylureido)-1H-indol-1-yl)acetyl)-N-(3-chloro-2-fluorobenzyl)-2-azabicyclo[3.1.0] hexane-3-carboxamide] | < 1 µM |
| CC(=O)c1cn(CC(=O)N2C[C@H](F)C[C@H]2C(=O)NCc2cccc(Cl)c2F)c2ccc(NC(=O)N3Cc4cncnc4C3)cc12 [Compound 22, N-(3-acetyl-1-(2-((2S,4R)-2-(3-chloro-2-fluorobenzylcarbamoyl)-4-fluoropyrrolidin-1-yl)-2-oxoethyl)-1H-indol-5-yl)-5H-pyrrolo[3,4-d]pyrimidine-6(7H)-carboxamide] | < 1 µM |
| CC(=O)c1cn(CC(=O)N2C[C@H](F)C[C@H]2C(=O)NCc2cccc(Cl)c2F)c2cc(C(=O)N[C@H]3CCN(C(=O)OC(C)(C)C)C3)ccc12 [Compound 44, (S)-tert-butyl 3-(3-acetyl-1-(2-((2S,4R)-2-(3-chloro-2-fluorobenzyl-carbamoyl)-4-fluoropyrrolidin-1-yl)-2-oxoethyl)-1H-indole-6-carboxamido) pyrrolidine-1-carboxylate] | < 1 µM |
| CC(=O)c1cn(CC(=O)N2C[C@H](F)C[C@H]2C(=O)Nc2cccc(OC(F)(F)F)c2F)c2ccc(NC(=O)NC3CC3)cc12 [Compound 10, (2S,4R)-1-(2-(3-acetyl-5-(3-cyclopropylureido)-1H-indol-1-yl)acetyl)-4-fluoro-N-(2-fluoro-3-(trifluoromethoxy)phenyl)pyrrolidine-2-carboxamide] | < 1 µM |
| CC(=O)c1cn(CC(=O)N2C[C@H](F)C[C@H]2C(=O)NCc2cccc(Cl)c2F)c2ccc(NC(=O)OCC3CC3)cc12 [Compound 15, cyclopropylmethyl 3-acetyl-1-(2-((2S,4R)-2-(3-chloro-2-fluorobenzylcarbamoyl)-4-fluoropyrrolidin-1-yl)-2-oxoethyl)-1H-indol-5-ylcarbamate] | < 1 µM |
| CC(=O)c1cn(CC(=O)N2C[C@H](F)C[C@H]2C(=O)NCc2cccc(Cl)c2F)c2cc(C(=O)NS(=O)(=O)C3CC3)ccc12 [Compound 48, 3-acetyl-1-(2-((2S,4R)-2-(3-chloro-2-fluorobenzylcarbamoyl)-4-fluoropyrrolidin-1-yl)-2-oxoethyl)-N-(cyclopropylsulfonyl)-1H-indole-6-carboxamide] | < 1 µM |
| NC(=O)c1nn(CC(=O)N2C[C@H](F)C[C@H]2C(=O)Nc2cccc(-c3ccccc3Cl)c2F)c2ccc(NC(=O)N3CCCC(F)(F)C3)cc12 [Compound 24, 1-(2-((2S,4R)-2-(2′-chloro-2-fluorobiphenyl-3-ylcarbamoyl)-4-fluoropyrrolidin-1-yl)-2-oxoethyl)-5-(3,3-difluoropiperidine-1-carboxamido)-1H-indazole-3-carboxamide] | < 1 µM |
| CC(=O)c1cn(CC(=O)N2C[C@H](F)C[C@H]2C(=O)NCc2cccc(Cl)c2F)c2ccc(NC(=O)NCc3ccon3)cc12 [Compound 7, (2S,4R)-1-(2-(3-acetyl-5-(3-(isoxazol-3-ylmethyl)ureido)-1H-indol-1-yl)acetyl)-N-(3-chloro-2-fluorobenzyl)-4-fluoropyrrolidine-2-carboxamide] | < 1 µM |
| NC(=O)c1nn(CC(=O)N2C[C@H](F)C[C@H]2C(=O)Nc2cccc(-c3ccccc3Cl)c2F)c2ccc(NC(=O)N3CCC(F)(F)CC3)cc12 [Compound 31, 1-(2-((2S,4R)-2-(2′-chloro-2-fluorobiphenyl-3-ylcarbamoyl)-4-fluoropyrrolidin-1-yl)-2-oxoethyl)-5-(4,4-difluoropiperidine-1-carboxamido)-1H-indazole-3-carboxamide] | < 1 µM |

Same assay, conditions: Table 3; factor D inhibition assay; read-out: IC50 (Stars)

| IC50 | Structure (SMILES) |
| --- | --- |
| 1 to 10 µM | CC(=O)c1cn(CC(=O)N2C[C@H](F)C[C@H]2CCNS(=O)(=O)c2ccccc2)c2ccc(NC(=O)N3CCCC(F)(F)C3)cc12 [Compound 201, N-(3-acetyl-1-(2-((2R,4R)-4-fluoro-2-(2-(phenylsulfonamido)ethyl)pyrrolidin-1-yl)-2-oxoethyl)-1H-indol-5-yl)-3,3-difluoro-piperidine-1-carboxamide] |
| 1 to 10 µM | CC(=O)c1cn(CC(=O)N2C[C@H](F)C[C@H]2C(=O)NCCCc2ccccc2)c2ccc(C(=O)NS(=O)(=O)C3CC3)cc12 [Compound 190, 3-acetyl-N-(cyclopropylsulfonyl)-1-(2-((2S,4R)-4-fluoro-2-((3-phenylpropyl)carbamoyl)pyrrolidin-1-yl)-2-oxoethyl)-1H-indole-5-carboxamide] |
| < 1 µM | CC(=O)c1cn(CC(=O)N2C[C@H](F)C[C@H]2C(=O)NCCCc2ccccc2)c2ccc(NC(=O)N3CCCC(F)(F)C3)cc12 [Compound 198, N-(3-acetyl-1-(2-((2S,4R)-4-fluoro-2-((3-phenylpropyl)carbamoyl)pyrrolidin-1-yl)-2-oxoethyl)-1H-indol-5-yl)-3,3-difluoropiperidine-1-carboxamide] |
| < 1 µM | CC(=O)c1nn(CC(=O)N2C[C@H](F)C[C@H]2C(=O)Nc2cccc(Br)n2)c2ccc(NC(=O)N3CCC(F)(F)C3)cc12 [Compound 207, N-(3-acetyl-1-(2-((2S,4R)-2-((6-bromo-pyridin-2-yl)carbamoyl)-4-fluoro-pyrrolidin-1-yl)-2-oxoethyl)-1H-indazol-5-yl)-3,3-difluoro-pyrrolidine-1-carboxamide] |
| 1 to 10 µM | CC(=O)c1nn(CC(=O)N2[C@H](C(=O)Nc3cccc(Br)n3)C[C@@]3(C)C[C@@H]23)c2cc(C(=O)NS(=O)(=O)C3CC3)ccc12 [Compound 234, 3-acetyl-1-(2-((1R,3S,5R)-3-((6-bromopyridin-2-yl)carbamoyl)-5-methyl-2-azabicyclo [3.1.0]hexan-2-yl)-2-oxoethyl)-N-(cyclopropylsulfonyl)-1H-indazole-6-carboxamide] |
| < 1 µM | CC(=O)c1nn(CC(=O)N2C[C@H](F)C[C@H]2C(=O)Nc2cccc(Br)n2)c2ccc(NC(=O)C3CCCC3(F)F)cc12 (stereo partly shown) [Compound 230] |
| > 10 µM | CC(=O)c1cn(CC(=O)N2CC[C@H]2C(=O)Nc2cccc(C)n2)c2ccc(NC(=O)N3CCCC(F)(F)C3)cc12 [Compound 205, (S)-N-(3-acetyl-1-(2-(2-((6-methylpyridin-2-yl)-carbamoyl)-azetidin-1-yl)-2-oxoethyl)-1H-indol-5-yl)-3,3-difluoropiperidine-1-carboxamide] |
| > 10 µM | CC(=O)c1cn(CC(=O)N2C[C@H](F)C[C@H]2CCNS(=O)(=O)c2ccccc2)c2ccc(C(=O)NS(=O)(=O)C3CC3)cc12 [Compound 174, 3-acetyl-N-(cyclopropylsulfonyl)-1-(2-((2R,4R)-4-fluoro-2-(2-(phenylsulfonylamido)ethyl)pyrrolidin-1-yl)-2-oxoethyl)-1H-indole-5-carboxamide] |
